Laboratory results: patent US20240279214A1, “ALPHA4 BETA7 INEGRIN ANTAGONISTS AND USES THEREOF” (XinThera, Inc., priority 2022, published 2024)

Target: T1, a4b1 integrin interaction with VCAM-1 (Homo sapiens, UniProt P05556+P13612)
T1 construct: capture of a4b1 integrin expressing cells Jurkat; endogenous in cells; host or cells: Jurkat
Experiment: a4b1 Cell Capture Assay (Jurkat cells on VCAM-1 Fc coated plates)
Assay type: cell-based
Conditions: 50% human serum, 1 mM MgCl2, 1 hour incubation, CellTiter-Glo luminescence
Protocol: The potency of inhibitors in preventing a4b1 integrin interaction with VCAM-1 was measured by monitoring the capture of a4b1 integrin expressing cells Jurkat on recombinant human VCAM-1 Fc chimera protein-coated plates. The protein was a fusion between human VCAM-1 (Phe25-Glu698) Accession #P19320, Accession #AAY82472) and human IgG1 (Pro100-Lys330)] (R&D Systems, Catalog #862-VC). 96-well plates (Thermofisher, Catalog #136102) were coated with the recombinant protein by dispensing 100 μL of 0.25 μg/mL per well. After a quick spin to settle down the coating solution using plate centrifuge, plates were incubated overnight at 4° C. in a moisture chamber. On Day 2, the plates were washed with PBS using a Bluecatbio Blue®Washer (GentleSpin wash, 3 cycles, pressure=1, volume 150 uL). Blocking solution (1.0% BSA in PBS, Sigma, Catalog #A7979) was then added at 200 uL/well, and the plates were quickly spun to settle down blocking buffer and incubated in cell culture incubator at 37° C. and 5% CO2 for 1 hour. The plates were then washed with 0.1% BSA in PBS using a Bluecatbio Blue®Washer (GentleSpin wash, 3 cycles, pressure=1, volume 150 uL). Jurkat cells suspended in assay medium (1 mM MgCl2 25 mM HEPES and 50% human serum, Sigma, Catalog #H4522) at a density of 0.5×10^6 cells/mL were added at 100 uL/well. Each compound evaluated was prepared as a DMSO stock solution. Test compounds were evaluated with a 9-point serial dilution curve and were added to the plates using a Tecan D300e Digital dispenser. Each titration curves were performed in triplicate on the same plate, and most of compounds were retested in different dates multiple times. The plates were shaken at 300 rpm on orbital plate shaker for 3 minutes to mix the cells and compounds, quickly spun to settle the cells and solution, and incubated in cell culture incubator at 37° C. and 5% CO2. After 1 hour incubation, the unbound cells were washed away with RPMI1640 medium supplemented with 1 mM MgCl2 and 1% BSA) (wash buffer) using a Bluecatbio Blue®Washer (MagbeadsSpin wash, 1 cycle, pressure 1, volume=150 uL). After wash buffer removal, A mixture of wash buffer/CellTiter-Glo® Reagent (Pormega, catalog #G7573) at 1:1 (V/V) was added at volume of 100 uL to each well. The plates were placed in a chamber at 25° C. and incubated for 30 minutes. Luminescence was recorded using a Envision plate reader 2105 according to CellTiter-Glo protocol.
The mean luminescence signals from negative control wells without VCAM-1 coating and compound treatment (cells only) was defined as 100% binding inhibition, and the mean luminescence signals from positive control wells with VCAM-1 coating but without compound treatment (VCAM-1 and cells only) was defined as 0% binding inhibition. The luminescence signals from other compound treated wells were normalized in percentage scale accordingly. The normalized mean % inhibition data were plotted against logarithmic compound concentration in nanomolar and were fitted with 4-parameter logistic model to obtain IC50 for each compound.

T1 sequence (P13612 34-1032): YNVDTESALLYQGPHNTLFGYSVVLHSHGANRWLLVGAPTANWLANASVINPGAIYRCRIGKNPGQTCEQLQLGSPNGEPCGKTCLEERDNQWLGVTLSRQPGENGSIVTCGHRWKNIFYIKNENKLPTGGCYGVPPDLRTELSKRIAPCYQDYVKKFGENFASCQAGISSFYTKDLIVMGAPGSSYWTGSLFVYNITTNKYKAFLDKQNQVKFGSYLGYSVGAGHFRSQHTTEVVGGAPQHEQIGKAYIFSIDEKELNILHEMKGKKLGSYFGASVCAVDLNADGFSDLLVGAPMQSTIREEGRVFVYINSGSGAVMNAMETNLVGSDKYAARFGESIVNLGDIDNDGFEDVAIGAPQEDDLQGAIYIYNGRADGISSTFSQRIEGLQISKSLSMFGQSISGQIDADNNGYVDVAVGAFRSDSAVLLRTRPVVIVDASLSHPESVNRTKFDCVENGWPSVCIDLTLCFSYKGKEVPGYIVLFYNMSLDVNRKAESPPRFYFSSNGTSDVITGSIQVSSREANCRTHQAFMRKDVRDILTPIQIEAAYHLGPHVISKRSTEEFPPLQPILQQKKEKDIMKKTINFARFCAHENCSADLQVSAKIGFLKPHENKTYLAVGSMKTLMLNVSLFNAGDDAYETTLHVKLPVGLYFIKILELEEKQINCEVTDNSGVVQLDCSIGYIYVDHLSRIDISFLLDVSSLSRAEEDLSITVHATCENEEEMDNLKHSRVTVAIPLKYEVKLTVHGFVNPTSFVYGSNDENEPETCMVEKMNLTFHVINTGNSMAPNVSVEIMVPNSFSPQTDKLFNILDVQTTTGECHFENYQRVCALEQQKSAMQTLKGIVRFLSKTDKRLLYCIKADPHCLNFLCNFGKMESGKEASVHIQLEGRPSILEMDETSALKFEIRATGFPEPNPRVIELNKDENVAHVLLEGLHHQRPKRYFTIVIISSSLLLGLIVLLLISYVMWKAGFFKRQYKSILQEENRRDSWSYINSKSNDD
T1 sequence (P05556 21-798): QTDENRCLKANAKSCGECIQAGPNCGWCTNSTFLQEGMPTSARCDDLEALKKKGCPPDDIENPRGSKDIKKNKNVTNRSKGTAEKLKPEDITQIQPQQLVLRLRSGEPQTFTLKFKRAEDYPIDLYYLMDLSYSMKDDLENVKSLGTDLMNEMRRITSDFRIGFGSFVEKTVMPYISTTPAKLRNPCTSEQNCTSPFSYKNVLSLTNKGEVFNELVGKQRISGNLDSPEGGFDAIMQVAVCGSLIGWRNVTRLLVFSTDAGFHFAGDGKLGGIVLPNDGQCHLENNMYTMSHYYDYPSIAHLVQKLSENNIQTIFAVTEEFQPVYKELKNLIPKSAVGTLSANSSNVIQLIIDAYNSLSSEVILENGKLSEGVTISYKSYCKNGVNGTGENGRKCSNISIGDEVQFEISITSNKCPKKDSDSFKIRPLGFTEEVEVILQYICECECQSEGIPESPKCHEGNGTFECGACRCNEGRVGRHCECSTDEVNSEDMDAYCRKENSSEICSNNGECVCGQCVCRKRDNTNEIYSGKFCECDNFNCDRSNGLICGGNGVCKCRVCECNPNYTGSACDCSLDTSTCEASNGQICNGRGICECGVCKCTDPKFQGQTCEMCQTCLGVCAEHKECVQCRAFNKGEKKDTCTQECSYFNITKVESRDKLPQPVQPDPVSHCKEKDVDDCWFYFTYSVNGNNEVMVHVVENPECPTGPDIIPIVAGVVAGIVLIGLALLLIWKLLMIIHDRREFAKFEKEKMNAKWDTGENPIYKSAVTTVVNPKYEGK

| EC50 [nM] | SMILES |
| --- | --- |
| 2080 | Cc1cc2cc(c1F)[C@H](CC(=O)O)NC(=O)[C@@H](n1cc(CCN3CC(F)C3)c(C(F)(F)F)cc1=O)c1cccc(c1)Oc1cccc(C)c1-2 (relative stereo) [Example 1, rel-2-((5S,8S)-1^4-fluoro-5-(5-(2-(3-fluoroazetidin-1-yl)ethyl)-2-oxo-4-(trifluoromethyl)pyridin-1(2H)-yl)-1^5,2^6-dimethyl-6-oxo-3-oxa-7-aza-1,4(1,3),2(1,2)-tribenzenacyclooctaphane-8-yl)acetic acid] |
| 61.5 | Cc1cc2cc(c1F)[C@H](CC(=O)O)NC(=O)[C@@H](n1cc(CCN3CC(F)C3)c(C(F)(F)F)cc1=O)c1cc(ccc1F)Oc1cccc(C)c1-2 (relative stereo) [Example 7, [(14R*,17S)-12,19-difluoro-14-{5-[2-(3-fluoroazetidin-1-yl)ethyl]-2-oxo-4-(trifluoromethyl)pyridin-1-yl}-3,20-dimethyl-15-oxo-8-oxa-16-azatetracyclo[16.3.1.1^{9,13}.0^{2,7}]tricosa-1(21),2(7),3,5,9(23),10,12,18(22),19-nonaen-17-yl]acetic acid] |
| 11900 | Cc1cc(C2CC2)cc2c1-c1cc(c(F)c(C(F)(F)F)c1)[C@H](CC(=O)O)NC(=O)[C@@H](n1cc(CCN3CC(F)C3)c(C(F)(F)F)cc1=O)c1cccc(c1)O2 (relative stereo) [Example 10, [(14R*,17S)-5-cyclopropyl-19-fluoro-14-{5-[2-(3-fluoroazetidin-1-yl)ethyl]-2-oxo-4-(trifluoromethyl)pyridin-1-yl}-3-methyl-15-oxo-20-(trifluoromethyl)-8-oxa-16-azatetracyclo[16.3.1.1^{9,13}.0^{2,7}]tricosa-1(21),2(7),3,5,9,11,13(23),18(22),19-nonaen-17-yl]acetic acid] |
| 880 | Cc1cccc2c1-c1cc(c(F)c(C(F)(F)F)c1)[C@H](CC(=O)O)NC(=O)[C@@H](n1cc(CCN3CC(F)C3)c(C(F)(F)F)cc1=O)c1cc(Cl)cc(c1)O2 (relative stereo) [Example 15, [(14R*,17S)-11-chloro-19-fluoro-14-{5-[2-(3-fluoroazetidin-1-yl)ethyl]-2-oxo-4-(trifluoromethyl)pyridin-1-yl}-3-methyl-15-oxo-20-(trifluoromethyl)-8-oxa-16-azatetracyclo[16.3.1.1^{9,13}.0^{2,7}]tricosa-1(22),2(7),3,5,9,11,13(23),18,20-nonaen-17-yl]acetic acid] |
| 689 | Cc1cc(C)c2c(c1)Oc1cccc(c1)[C@H](n1cc(CCCN(C)C)c(C(F)(F)F)cc1=O)C(=O)N[C@@H](CC(=O)O)c1cn-2nc1C(F)(F)F (relative stereo) [Example 18, [(13S,16R*)-16-{5-[3-(dimethylamino)propyl]-2-oxo-4-(trifluoromethyl)pyridin-1-yl}-5,7-dimethyl-15-oxo-11-(trifluoromethyl)-2-oxa-9,10,14-triazatetracyclo[15.3.1.1^{9,12}.0^{3,8}]docosa-1(20),3(8),4,6,10,12(22),17(21),18-octaen-13-yl]acetic acid] |
| 359 | Cc1cc2cc(c1F)[C@H](CC(=O)O)NC(=O)[C@@H](n1cc(CCN3CC(F)C3)c(C(F)(F)F)cc1=O)c1cc(Cl)cc(c1)Oc1cccc(C)c1-2 (single isomer, unassigned) [Example 3] |
| 4580 | Cc1cc(Cl)cc2c1-c1cc(c(F)c(C(F)(F)F)c1)[C@H](CC(=O)O)NC(=O)[C@@H](n1cc(CCN3CC(F)C3)c(C(F)(F)F)cc1=O)c1cccc(c1)O2 (single isomer, unassigned) [Example 11] |
